For one series, the target named is T1, recombinant human PDE5 (Homo sapiens, UniProt O76074).
T1 construct: host or cells: Saccharomyces cerevisiae strain BJ2-54 (ATCC 74465)
As to the kind of experiment: Inhibitory effect on cGMP-PDE (PDE5 IC50 determination). It is filed as biochemical. As to conditions: in vitro, read-out: IC50 versus PDE5. How it is done:
The compounds of structural formula (I) were tested for an ability to inhibit PDE5. The ability of a compound to inhibit PDE5 activity is related to the IC50 value for the compound, i.e., the concentration of inhibitor required for 50% inhibition of enzyme activity. The IC50 value for compounds of structural formula (I) were determined using recombinant human PDE5.
Phosphodiesterase activity of the preparations was determined as follows. PDE assays utilizing a charcoal separation technique were performed essentially as described in Loughney et al. (1996). In this assay, PDE activity converts [32P]cAMP or [32P]cGMP to the corresponding [32P]5′-AMP or [32P]5′-GMP in proportion to the amount of PDE activity present. The [32P]5′-AMP or [32P]5′-GMP then was quantitatively converted to free [32P]phosphate and unlabeled adenosine or guanosine by the action of snake venom 5′-nucleotidase. […] The assay was performed at 30° C. in a 100 μL reaction mixture containing (final concentrations) 40 mM Tris HCl (pH 8.0), 1 μM ZnSO4, 5 mM MgCl2, and 0.1 mg/mL bovine serum albumin (BSA). PDE enzyme was present in quantities that yield <30% total hydrolysis of substrate (linear assay conditions). The assay was initiated by addition of substrate ([…] [32P]cAMP or cGMP), and the mixture was incubated for 12 minutes. Seventy-five (75) μg of Crotalus atrox venom then was added, and the incubation was continued for 3 minutes (15 minutes total). The reaction was stopped by addition of 200 μL of activated charcoal (25 mg/mL suspension in 0.1 M NaH2PO4, pH 4). After centrifugation (750×g for 3 minutes) to sediment the charcoal, a sample of the supernatant was taken for radioactivity determination in a scintillation counter and the PDE activity was calculated.
cGMP-PDE activity of compounds of the present invention was measured using a one-step assay adapted from Wells et al., Biochim. Biophys. Acta, 384, 430 (1975). The reaction medium contained 50 mM Tris-HCl, pH 7.5, 5 mM magnesium acetate, 250 μg/ml 5′-Nucleotidase, 1 mM EGTA, and 0.15 μM 8-[H^3]-cGMP. Unless otherwise indicated, the enzyme used was a human recombinant PDE5 (ICOS Corp., Bothell, Wash.).
Compounds of the invention were dissolved in DMSO finally present at 2% in the assay.

What is called IC50 is the concentration that inhibits the measured activity by half. Broadly, the melting point is the temperature of the solid-liquid transition. `CN1CC(=O)N2[C@H](c3ccc4c(c3)OCO4)c3[nH]c4ncccc4c3C[C@@H]2C1=O` (racemic) [Example 1, (+/−,cis)-10-Benzo[1,3]dioxol-5-yl-7-methyl-5,5a,7,8,10,11-hexahydro-1,7,9a,11-tetraazabeno[β]fluorene-6,9-dione] registered a melting point of 262 to 276 °C. Also, the IC50 at recombinant human PDE5 came to 2.3 nM.

The compound `CN1CC(=O)N2[C@H](c3ccc4c(c3)OCO4)c3c([nH]c4ccccc34)C[C@@H]2C1=O` [Example 5(a), (5R,9aR)-5-Benzo(1,3)dioxol-5-yl-8-methyl-5,7,8,9a,10,11-hexahydro-5a,8,11-triaza-benzo[b]fluorane-8,9-dione] came in with a melting point of 274 to 277 °C. For the same compound, at recombinant human PDE5, the IC50 was determined as 338 nM.

Regarding `CN1CC(=O)N2[C@@H](c3ccc4c(c3)OCO4)c3c([nH]c4ccccc34)C[C@@H]2C1=O` [Example 5(b), (5S,9aR)-5-Benzo[1,3]dioxol-5-yl-8-methyl-5,7,8,9a,10,11-hexahydro-5a,8,11-triaza-benzo[b]fluorene-8,9-dione], the melting point was in the range of 274 to 277 °C. The IC50 on recombinant human PDE5 stood at 125 nM.

In turn, `CN1CC(=O)N2[C@H](c3ccc4c(c3)OCO4)c3sc4ccccc4c3C[C@@H]2C1=O` (racemic) [Example 4, (+/−,cis)-10-Benzo[1,3]dioxol-5-yl-7-methyl-5,7,8,10-tetrahydro-5aH-11-thia-7,9a-diazabenzo[β]fluorene-6,9-dione] had a melting point of 245 to 266 °C. In addition, the half-maximal inhibitory concentration (IC50) at recombinant human PDE5 is 555 nM.

Values taken from patent publication US6903099B2, “Condensed pyrazindione derivatives” (Lilly Icos LLC, priority 2000, dated 2005).
